One test concerns the target Full-length WT ClbP (Escherichia coli, UniProt Q0P7K6). In words: ClbP molecular (purified protein) enzymatic inhibition assay, fluorogenic substrate. The format is biochemical, E. coli.
Test [1] has as its target T1, ClbP (Escherichia coli, UniProt Q0P7K6). In words: ClbP cell lysate activity (inhibition) assay, fluorogenic substrate. The format is biochemical. As to conditions: ClbP Lysate Inhibition Assay: IC50, E. coli ClbP+ lysozyme-EDTA lysates, 5 μM fluorogenic substrate, inhibitor 0-300 μM, 37° C., singlicate. The method, boiled down:
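E. coli ClbP+ overnight culture lysed with lysozyme-EDTA (30 min, 37 °C); lysate (fivefold concentrated vs culture) mixed with inhibitor (0–300 μM, 4% DMSO) and 5 μM fluorogenic substrate. Fluorescence (ex 360/em 460 nm) read at 37 °C; 0–20 min rates normalized to no-inhibitor, three-parameter IC50 fit, singlicate.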

Test [2] addresses T1, ClbP. Nature of the test: ClbP whole cell activity (inhibition) assay, fluorogenic substrate. The format is cell-based, E. coli. The method, boiled down: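 E. coli ClbP+ overnight culture washed and concentrated fivefold in PBS, mixed with inhibitor (0–300 μM, 4% DMSO) and 5 μM fluorogenic substrate at 37 °C. Fluorescence (ex 360/em 460 nm) read every 2 min for 46 min. Rates from 10–30 min normalized to no inhibitor and fit to a three-parameter IC50.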

In general, IC50 refers to the concentration needed to halve the response being measured.

Regarding `CCCCCCCC(=O)N[C@H](CN[C@@H](C)C(=O)OC)CC(N)=O` [Compound CCLXXXI], the values for the IC50 against Full-length WT ClbP, against ClbP [1] and against ClbP [2] were 100 to 300 µM, more than 300 µM and more than 300 µM, respectively.

On to `O=C(C[C@@H](NC(=O)CCCC1CCCCC1)C(=O)NCCc1ccc(O)cc1)NO` [Compound CCXCVI], for which the IC50 against Full-length WT ClbP, at ClbP [1] and against ClbP [2] was less than 100 µM throughout.

As for `CCCCCCCC(=O)N[C@H](CC(N)=O)C(=O)NCCC1CCN(C)CC1` [Compound CCXIX], the IC50 at Full-length WT ClbP was less than 100 µM; on ClbP [1], 100 to 300 µM; at ClbP [2] it was less than 100 µM.

With `CCCCCC(=O)N[C@H](CC(N)=O)C(=O)NCCc1ccccc1` [Compound CCLXVII], the IC50 was less than 100 µM against Full-length WT ClbP, 100 to 300 µM against ClbP [1] and less than 100 µM against ClbP [2].

Take `CCCCCCCC(=O)N[C@H](CC(=O)NC)C(=O)NCCc1ccccc1` [Compound CCXVI]: the IC50 at Full-length WT ClbP was 100 to 300 µM; against ClbP [1] it was 100 to 300 µM; against ClbP [2], less than 100 µM.

As for `CCCCCCCC(=O)N[C@H](CC(=O)NO)C(=O)NCCc1ccc(O)c(O)c1` [Compound CCXCIII], the IC50 against Full-length WT ClbP, against ClbP [1] and against ClbP [2] was less than 100 µM each time.

Consider `CCCCCCCCCCCC(=O)N[C@H](CC(N)=O)C(=O)NCCc1ccc(O)cc1` [Compound CCCVII], for which the IC50 against Full-length WT ClbP, at ClbP [1] and against ClbP [2] was less than 100 µM each time.

As for `CCCCCCCC(=O)N[C@@H](/C=C/C(=O)OCC)CC(N)=O` [Compound CCLXXIII], the IC50 against Full-length WT ClbP was 100 to 300 µM; against ClbP [1] it was more than 300 µM; at ClbP [2] it was more than 300 µM.

Take `CCCCCC(=O)N[C@H](CC(N)=O)C(=O)NCCc1ccc(C(F)(F)F)cc1` [Compound CCLXXV]: the IC50 on Full-length WT ClbP is less than 100 µM; against ClbP [1], more than 300 µM; at ClbP [2], more than 300 µM.

With `CCCCCCCCCC(=O)N[C@H](CC(N)=O)C(=O)NCCc1ccccn1` [Compound CCCIX], the IC50 against Full-length WT ClbP, against ClbP [1] and at ClbP [2] was less than 100 µM in each case.

`NC(=O)C[C@@H](NC(=O)CCCC1CCCCC1)C(=O)NCCc1ccccc1` [Compound CCLXX]: the IC50 at Full-length WT ClbP, at ClbP [1] and on ClbP [2] was less than 100 µM throughout.

On to `CC(=O)N[C@H](CC(N)=O)C(=O)NCCc1ccccc1` [Compound CCLXV], for which the IC50 is 100 to 300 µM against Full-length WT ClbP, more than 300 µM against ClbP [1] and more than 300 µM at ClbP [2].

Turning to `CCCCCCCCCC(=O)N[C@H](CC(N)=O)C(=O)NCCc1ccc(O)cc1` [Compound CCXXI], the IC50 against Full-length WT ClbP, at ClbP [1] and against ClbP [2] was less than 100 µM each time.

On to `NC(=O)C[C@@H](NC(=O)CC1CCCCC1)C(=O)NCCc1ccccc1` [Compound CCLXXI], for which the IC50 at Full-length WT ClbP was less than 100 µM; against ClbP [1], more than 300 µM; at ClbP [2] it was 100 to 300 µM.

Consider `CCCCCCCC(=O)N[C@H](CC(N)=O)CN(C)CCc1ccccc1` [Compound XVI], for which the figures for the IC50 against Full-length WT ClbP, against ClbP [1] and at ClbP [2] were less than 100 µM, less than 100 µM and more than 300 µM, respectively.

As to `CCCCCCCC(=O)N[C@H](CC(N)=O)C(=O)NCCN1CCNCC1` [Compound CCXX], the IC50 at Full-length WT ClbP, against ClbP [1] and on ClbP [2] was less than 100 µM throughout.

In the case of `NC(=O)C[C@@H](NC(=O)/C=C/CC1CCCC1)C(=O)NCCc1ccccc1` [Compound CCLXII], the IC50 on Full-length WT ClbP is less than 100 µM; against ClbP [1], more than 300 µM; against ClbP [2], more than 300 µM.

For the origin of these results see patent US20230234917A1, “ASPARAGINE DERIVATIVES AND METHODS OF USING SAME” (priority 2020, published 2023).
